From patent US20040235922A1, “Compositions and methods for inducing adipose tissue cell death” (priority 2003, published 2004)
Entries after “also recorded” stand apart in the source; their conditions may differ. Where a name gives a salt, the structure may show the parent alone. Marks after values point to notes of the source that are not given here.

Key:
[1] = 21 day oral (diet) treatment of mice: body weight, food intake, feed efficiency, body temperature, body composition by PIXImus densitometry (Example 1); type: in vivo; settings: 21 days, ICR mice
Protocol: (§1) The effects of clenbuterol, a β2-AR agonist, and ractopamine, a β1/β2-AR agonist, on growth, adiposity and adipose tissue apoptosis in male and female mice have been tested by feeding diets containing control, 200 ppm clenbuterol, or 200 or 800 ppm ractopamine. Food intake (FI) was measured daily; body weight (BW) and temperatures (BT) were measured on days 0, 3, 7, 10, 14, 17, and 20. On day 21 mice were sacrificed, body composition was determined using PIXImus densitometry, and muscle and adipose tissues were collected. There were no treatment effects on BT, FI, BW, feed efficiency or body composition. Retroperitoneal (Rp) and epididymal/parametrial (Epi/Par) fat pad masses were reduced in both 800 ppm ractopamine (40±3 and 207±20 mg, respectively) and clenbuterol (35±7 and 211±22 mg) treated mice compared to control (66±8 and 319±30 mg, p<0.05). Brown adipose tissue (BAT) mass was greater (p<0.05) in clenbuterol treated mice compared to other treatments. Adipose tissue apoptosis (% DNA fragmentation) was increased in Epi/Par fat pads in clenbuterol (5.2+1.1%) and 800 ppm ractopamine (4.1±0.8%) treated mice compared to control (1.7+0.4%, p<0.05).
(§2) Animals: Five week old male (n=20) and female (n=20) ICR mice (Harlan Research Laboratories, Indianapolis, Ind.) were allowed to acclimate for one week prior to the experiment start date. Animals were housed singly in suspended wire cages and were provided ground rodent chow (ProLab® RMH 2500; Purina Mills, St. Louis, Mo.) and water ad libitum. Ambient room temperature was maintained and the light/dark cycle was 0600/1800 hours, respectively. Animals were cared for in accordance with the Guide for the Care and Use of Laboratory Animals (Institute of Laboratory Animal Resources Commission on Life Sciences National Research Council. Guide for the Care and Use of Laboratory Animals. National Academy of Sciences, 1996). Prior to the start of the study, animals were briefly anesthetized with isofluorane and an IPPT-200 transponder (programmable ID and temperature, BMDS, Seaford, Del.) was implanted subcutaneously between the scapulae.
(§3) Materials: Test articles included clenbuterol (Sigma Chemical Company, St. Louis, Mo., item # C5423) and ractopamine hydrochloride—Paylean® 9 (Elanco Animal Health, Indianapolis, Ind.). Clenbuterol is available as a pure product, and ractopamine is readily available as a type A medicated article. Paylean® 9 contains about 20 g ractopamine hydrochloride per kilogram in a ground corncob base. In order to achieve doses of 200 and 800 ppm it was necessary to add about […] of product per kilogram of diet. Control and clenbuterol diets were prepared with about 80 g of alphacel, which is a diluent used to mimic the effect of the corncob in the ractopamine product. The dose of clenbuterol used in this experiment was similar to those used in previous experiments with mice (Agbenyega E T, and Wareham A C. Effect of clenbuterol on skeletal muscle atrophy in mice induced by the glucocorticoid dexamethasone. Comp Biochem Physiol Comp Physiol 1992;102:141-145, Rothwell N. J., and Stock M J. Modification of body composition by clenbuterol in normal and dystrophic (mdx) mice. Biosci Rep 1985;5:755-760, Hyltander A, Svaninger G, and Lundholm K. The effect of clenbuterol on body composition in spontaneously eating tumour-bearing mice. Biosci Rep 1993;13:325-331, Hayes A, and Williams DA. Long-term clenbuterol administration alters the isometric contractile properties of skeletal muscle from normal and dystrophin-deficient mdx mice. Clin Exp Pharmacol Physiol 1994;21:757-765, Dupont-Versteegden EE. Exercise and clenbuterol as strategies to decrease the progression of muscular dystrophy in mdx mice. J Appl Physiol 1996;80:734-741).
Daily Observations: Food intake was measured daily, while body weight and body temperatures were measured on days 0, 3, 7, 10, 14, 17, and 20 at approximately the same time of day (1300 hours) during the treatment period. […]

male and female ICR mice = assay: 21 day oral (diet) treatment of mice: selected tissue weights, fat pads, BAT, muscle, organs (Example 1); type: in vivo; settings: 21 days; for BAT tissue weight, mean / Biceps tissue weight, mean / Epi/Par tissue weight, mean / Ing tissue weight, mean / Rp tissue weight, mean: male and female mice; for Par weight, mean: females; for Epi weight, mean: males
Protocol: as §1, §2
as §3, with “1996;80:734-741). […]” for “1996;80:734-741).”

[2] = system: Epi/Par fat pads (white adipose tissue); assay: Adipose tissue apoptosis assay, % DNA fragmentation (Example 1); type: in vivo, mice; settings: 21 days
Protocol: as §2, §3
DNA Isolation and Apoptosis Assay: Only the Epi and Par fat pads had sufficient tissue for the apoptosis assay. Apoptosis was assayed in two ways: DNA isolated from fat tissue was separated into two fractions: fragmented and genomic DNA. First, the fragmented DNA was run on an agarose gel in order to identify a ladder pattern of internucleosomal DNA degradation that is characteristic of apoptosis. Second, apoptosis was quantified as the ratio of fragmented- to total-DNA, multiplied by 100. Briefly, approximately 50 mg of the Epi or Par white adipose tissue was homogenized in lysis buffer (10 mM Tris-HCL, pH 8.0, 10 mM EDTA, pH 8.0; 0.5% Triton X-100) and centrifuged at 14,000× g for 15 min to separate fragmented DNA from genomic DNA. The supernatant, containing fragmented DNA, was extracted with phenol-chloroform-isoamyl alcohol (25:24:1), and the DNA was precipitated by adding polyacryl carrier (Molecular Research Center, Inc., Cincinnati, Ohio) and ethanol. Genomic (non-fragmented) DNA was extracted from the pellet with DNAzol and the polyacryl carrier. DNA in each fraction was quantified by the PicoGreen method (Molecular Probes, Inc., Eugene, Oreg.) and fluorescence was measured using a SpectroMax Gemini (Molecular Devices).
Statistical Analysis: Analysis of variance (SAS) was used to determine significance of treatment and gender effects. […]

cardiac myocytes = settings: via β1-AR stimulation; cited from earlier work
adipocytes = settings: leptin administration; cited from earlier work
[3] = 200 ppm clenbuterol, 800 ppm ractopamine in diet, p<0.05, hydrochloride

Q: For CC(CCc1ccc(O)cc1)NCC(O)c1ccc(O)cc1 (racemic) [Ractopamine, ractopamine hydrochloride], which “Cumulative Feed Intake” value ([1]; 200 ppm in diet) is on record?
A: 5.92 g

Q: And the “Densitometry Bone Mineral Content” value ([1]; 200 ppm in diet)?
A: 0.67 g

Q: What about the “Densitometry Fat” value ([1]; 200 ppm in diet) of the same compound?
A: 3.00 g

Q: What about the “Densitometry Lean” value ([1]; 200 ppm in diet) of the same compound?
A: 25.63 g

Q: And the “Feed Efficiency” value ([1]; 200 ppm in diet)?
A: 15.8

Q: And the “Final Body Weight” value ([1]; 200 ppm in diet)?
A: 31.4 g

Q: And the “Weight Gain” value ([1]; 200 ppm in diet)?
A: 8.25 g

Q: And the “Cumulative Feed Intake” value ([1]; 800 ppm in diet)?
A: 6.39 g

Q: What about the “Densitometry Bone Mineral Content” value ([1]; 800 ppm in diet) of the same compound?
A: 0.67 g

Q: What about the “Densitometry Fat” value ([1]; 800 ppm in diet) of the same compound?
A: 3.01 g

Q: What about the “Densitometry Lean” value ([1]; 800 ppm in diet) of the same compound?
A: 27.42 g

Q: What about the “Feed Efficiency” value ([1]; 800 ppm in diet) of the same compound?
A: 16.6

Q: What about the “Final Body Weight” value ([1]; 800 ppm in diet) of the same compound?
A: 31.5 g

Q: What about the “Weight Gain” value ([1]; 800 ppm in diet) of the same compound?
A: 8.32 g

Q: What about the “Effect on body temperature, food intake, body weight, feed efficiency, body composition” value ([1]; diet, hydrochloride) of the same compound?
A: not significantly affected; also recorded: Neither clenbuterol nor ractopamine affected

Q: And the “Rp and Epi/Par fat pad weights compared to control” value (male and female ICR mice; [3])?
A: reduced; also recorded: decreased

Q: And the “BAT tissue weight, mean” value (male and female ICR mice; 200 ppm in diet)?
A: .096

Q: And the “Biceps tissue weight, mean” value (male and female ICR mice; 200 ppm in diet)?
A: .128

Q: And the “Epi/Par tissue weight, mean” value (male and female ICR mice; 200 ppm in diet)?
A: .295

Q: And the “Ing tissue weight, mean” value (male and female ICR mice; 200 ppm in diet)?
A: .230

Q: What about the “Rp tissue weight, mean” value (male and female ICR mice; 200 ppm in diet) of the same compound?
A: .058

Q: And the “BAT tissue weight, mean” value (male and female ICR mice; 800 ppm in diet)?
A: .095

Q: And the “Biceps tissue weight, mean” value (male and female ICR mice; 800 ppm in diet)?
A: .158

Q: And the “Epi/Par tissue weight, mean” value (male and female ICR mice; 800 ppm in diet)?
A: .207

Q: And the “Ing tissue weight, mean” value (male and female ICR mice; 800 ppm in diet)?
A: .176

Q: What about the “Rp tissue weight, mean” value (male and female ICR mice; 800 ppm in diet) of the same compound?
A: .039

Q: And the “Retroperitoneal (Rp) fat pad mass” value (male and female ICR mice; 800 ppm in diet, mice, control 66±8 mg)?
A: 40 ± 3 mg

Q: What about the “Epididymal/parametrial (Epi/Par) fat pad mass” value (male and female ICR mice; 800 ppm in diet, mice, control 319±30 mg) of the same compound?
A: 207 ± 20 mg

Q: What about the “Muscle mass / muscle weight, body protein or fat content” value (male and female ICR mice; diet, ICR mice) of the same compound?
A: no effect

Q: And the “Par weight, mean” value (male and female ICR mice; 200 ppm in diet)?
A: .22^b

Q: What about the “Par weight, mean” value (male and female ICR mice; 800 ppm in diet) of the same compound?
A: .22^b

Q: And the “Epi weight, mean” value (male and female ICR mice; 200 ppm in diet)?
A: .36^a

Q: And the “Epi weight, mean” value (male and female ICR mice; 800 ppm in diet)?
A: .19^b

Q: What about the “Percent DNA fragmentation (apoptosis) in the Epi/Par fat pad compared to control” value [2, 3] of the same compound?
A: significant increase in apoptosis

Q: What about the “Adipose tissue apoptosis (% DNA fragmentation) in Epi/Par fat pads” value ([2]; 800 ppm in diet, mice, control 1.7±0.4%) of the same compound?
A: 4.1±0.8%

Q: What about the “DNA fragmentation in retroperitoneal or inguinal fat pads” value ([2]; diet, mice) of the same compound?
A: Neither clenbuterol nor ractopamine treatments increased

Q: Which “Apoptosis of cardiac myocytes” value (cardiac myocytes) does the source give for NC[C@H](O)c1ccc(O)c(O)c1 [norepinephrine] here?
A: induce apoptosis

Q: With “leptin: leptin, administration shown in previous experiments to increase apoptosis of adipocytes” as the compound, how does the Apoptosis of adipocytes (adipocytes) read?
A: increase apoptosis
